Source: patent publication US5554615A, “Condensed pyrimidine derivative” (Eisai Co., Ltd., priority 1991, dated 1996)
pIC50: −log10 of the molar value. Where two headings read alike, the source gives them in different places.

How the values were obtained:
[1] = biological target: T1, dihydrofolate reductase (DHFR) (Mus musculus, UniProt P00375); experiment: Inhibitory activity against dihydrofolate reductase (DHFR); type: biochemical
T1 construct: DHFR was prepared from mouse leukemic cell P388; endogenous in cells; host or cells: P388 mouse leukemia cells (enzyme purified from the cells)
T1 sequence (P00375 1-187): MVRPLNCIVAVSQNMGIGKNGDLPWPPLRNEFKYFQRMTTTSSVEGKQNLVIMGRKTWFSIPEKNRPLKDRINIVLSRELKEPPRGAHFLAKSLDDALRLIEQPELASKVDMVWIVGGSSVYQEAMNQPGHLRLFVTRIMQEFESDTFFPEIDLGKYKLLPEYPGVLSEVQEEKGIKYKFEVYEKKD
Description: DHFR was prepared from mouse leukemic cell P388 according to the method of J. M. Whiteley et al. [see Arch.
A solution of purified DHFR was added to a solution comprising a potassium phosphate buffer solution (pH: 7.5, 75 mM), mercaptoethanol (7.5 mM) and NADPH (0.25 mM) to make up to a total amount of 0.57 mi. Each of the serial dilutions of the compound according to the present invention in an amount of 0.015 ml was added to the mixture prepared above. […] The obtained mixtures were kept at 37° C. for 5 minutes to conduct a reaction.

Mouse leukemic cell P388 = experiment: Inhibitory activity against proliferation of oncocyte, P388 (MTT method); type: cell-based; conditions: 72 h
Description: (§1) Mouse leukemic cell P388, mouse colonic cancer cell Colon 38, human rhinopharyngeal cancer cell KB and human lung cancer cell A549 were used as the oncocytes. […] The microplate was placed in a carbon dioxide incubator containing 5% of CO2 and incubated at 37° C. for one day. The DMSO solution of the compound according to the present invention was diluted with the culture medium to prepare the serial dilutions of the compound. These dilutions were added to the above wells in a predetermined amount. The resulting plate was cultured at 37° C. for 3 days. […] The number of viable cells was determined according to the method of M. C.

[2] = tested on: human lung cancer cell A549; experiment: Inhibitory activity against proliferation of oncocyte, A549 (MTT method); type: cell-based; conditions: 72 h
Description: as §1

[3] = tested on: human rhinopharyngeal cancer cell KB; experiment: Inhibitory activity against proliferation of oncocyte, KB (MTT method); type: cell-based; conditions: 72 h
Description: as §1

[4] = tested on: mouse colonic cancer cell Colon 38; experiment: Inhibitory activity against proliferation of oncocyte, Colon 38 (MTT method); type: cell-based; conditions: 72 h
Description: as §1

Mouse P388 leukemia = experiment: Activity against experimental tumor transplanted to mouse (P388 leukemia); type: in vivo; conditions: for MST / T/C: i.p., once a day for four days; for ratio of the maximum effective dose to the minimum one: tumor bearing mouse (CDF1)
Description: P388 cells (1×10^6) were inoculated into the abdominal cavity of a female CDF1 mouse of 7 weeks of age and a test drug was administered to the mouse once a day for four days from the next day.
Each test drug was administered intraperitoneally in a state dissolved or suspended in a 4% solution of NaHCO3 in physiological saline, while only a 4% solution of NaHCO3 in physiological saline was administered to a control group. Each control group was composed of ten mice, while each medicated group was composed of six mice. The antitumor activity was evaluated based on the T/C value calculated according to the following formula: [formula]
The measurement was conducted according to the method of R. I. Geran et al. (see Cancer Chemotherapy Reports (Part 3), 31 (1972)).

LX-1 = experiment: Inhibitory activity against proliferation of oncocyte, LX-1; type: cell-based; conditions: Homo sapiens, 72 h, Table 2-B, 3 days
[5] = in words; cited from earlier work
[6] = tested on: dihydrofolate reductase (DHFR); conditions: in words; cited from earlier work
[7] = read-out: 50% cell proliferation-inhibitory concentration (IC50), Table 2-A, 3 days
[8] = read-out: 50% cell proliferation-inhibitory concentration (IC50), Table 2-A, KB, 3 days
[9] = Table 2-B, 3 days, read-out: Proliferation-inhibitory activity IC50
[10] = Table 2-B, KB, 3 days, read-out: Proliferation-inhibitory activity IC50

In the case of `Nc1nc(N)c2c(ccn2CCCc2ccc(C(=O)N[C@@H](CCC(=O)O)C(=O)O)cc2)n1` [Ex. 2, N-[4-[3-(2,4-Diaminopyrrolo[3,2-d]pyrimidin-5-yl)propyl]benzoyl]-L-glutamat], the pIC50 [1] was 7.01, the pIC50 (Mouse leukemic cell P388; [7]) was 7.92 and the pIC50 [2, 7] was 7.72. For the same molecule, the pIC50 [3, 8] was 8.01, the pIC50 [4, 7] was 7.40 and the MST (Mouse P388 leukemia; Table 3-A, 3.13 mg/kg) was 13.3 ± 0.47. It also gave a T/C (Mouse P388 leukemia; Table 3-A, 3.13 mg/kg) of 148%, an MST (Mouse P388 leukemia; Table 3-A, 6.25 mg/kg) of 13.5 ± 0.50 and a T/C (Mouse P388 leukemia; Table 3-A, 6.25 mg/kg) of 150%. The MST (Mouse P388 leukemia; Table 3-A, 25.0 mg/kg) was 14.0 ± 0.71, the T/C (Mouse P388 leukemia; Table 3-A, 25.0 mg/kg) was 156% and the MST (Mouse P388 leukemia; Table 3-A, 50.0 mg/kg) was 14.8 ± 0.83. The T/C (Mouse P388 leukemia; Table 3-A, 50.0 mg/kg) was 164%, the MST (Mouse P388 leukemia; Table 3-A, 100.0 mg/kg) was 14.8 ± 0.83 and the T/C (Mouse P388 leukemia; Table 3-A, 100.0 mg/kg) was 164%. For the same molecule, the MST (Mouse P388 leukemia; Table 3-A, 200.0 mg/kg) was 16.0 ± 0.82, the T/C (Mouse P388 leukemia; Table 3-A, 200.0 mg/kg) was 178% and the “ratio of the maximum effective dose to the minimum one” value (Mouse P388 leukemia) was “about 60”.

With `CC(CCn1ccc2nc(N)nc(N)c21)c1ccc(C(=O)N[C@@H](CCC(=O)O)C(=O)O)cc1` (stereo partly drawn) [Ex. 4, N-[4-[3-(2,4-Diaminopyrrolo[3,2-d]pyrimidin-5-yl)-1-methylpropyl]benzoyl]-L-glutamate] the pIC50 [1] was 7.05, the pIC50 (Mouse leukemic cell P388; [7]) was 7.80 and the pIC50 [2, 7] was 7.20. For the same molecule, the pIC50 [3, 8] was 7.51, the pIC50 [4, 7] was 6.89 and the MST (Mouse P388 leukemia; Table 3-A, 50.0 mg/kg) was 18.5 ± 1.12. For the same molecule, the T/C (Mouse P388 leukemia; Table 3-A, 50.0 mg/kg) was 185%.

In the case of `CCC(CCn1ccc2nc(N)nc(N)c21)c1ccc(C(=O)N[C@@H](CCC(=O)O)C(=O)O)cc1` (stereo partly drawn) [Ex. 6, N-[4-[3-(2,4-Diaminopyrrolo[3,2-d]pyrimidin-5-yl)-1-ethylpropyl]benzoyl]-L-glutamate], the pIC50 [1] was 6.00, the pIC50 (Mouse leukemic cell P388; [7]) was 7.92 and the pIC50 [2, 7] was 6.03. It also gave a pIC50 [3, 8] of 7.52 and a pIC50 [4, 7] of 6.47.

`CCC(Cn1ccc2nc(N)nc(N)c21)c1ccc(C(=O)N[C@@H](CCC(=O)O)C(=O)O)cc1` (stereo partly drawn) [Ex. 9, N-[4-[2-(2,4-Diaminopyrrolo[3,2-d]pyrimidin-5-yl)-1-ethylethyl]benzoyl]-L-glutamate] gave a pIC50 [1] of 7.52, a pIC50 (Mouse leukemic cell P388; [7]) of 7.77 and a pIC50 [2, 7] of 7.00. The pIC50 [3, 8] was 7.49, the pIC50 [4, 7] was 7.41 and the MST (Mouse P388 leukemia; Table 3-A, 0.78 mg/kg) was 16.3 ± 1.02. It also gave a T/C (Mouse P388 leukemia; Table 3-A, 0.78 mg/kg) of 181%, an MST (Mouse P388 leukemia; Table 3-A, 3.13 mg/kg) of 14.8 ± 0.83 and a T/C (Mouse P388 leukemia; Table 3-A, 3.13 mg/kg) of 164%. For the same molecule, the MST (Mouse P388 leukemia; Table 3-A, 50.0 mg/kg) was 15.0 ± 0.71, the T/C (Mouse P388 leukemia; Table 3-A, 50.0 mg/kg) was 167% and the “ratio of the maximum effective dose to the minimum one” value (Mouse P388 leukemia) was “about 60”.

Work on `Nc1nc(N)c2c(n1)CCC2CCc1ccc(C(=O)N[C@@H](CCC(=O)O)C(=O)O)cc1` (stereo partly drawn) [Ex. 103, N-{4-[2-(2,4-diamino-6,7-dihydro-5H-cyclopenta[d]pyrimidin-5-yl)ethyl]benzoyl}-L-glutamic] yielded a pIC50 [1] of 7.14, a pIC50 (Mouse leukemic cell P388; [9]) of 8.11 and a pIC50 [2, 9] of 8.01. It also gave a pIC50 [3, 10] of 8.42, a pIC50 [4, 9] of 8.05 and a T/C (Mouse P388 leukemia; Table 3-B, 0.78 mg/kg) of 129%. It also gave a T/C (Mouse P388 leukemia; Table 3-B, 3.13 mg/kg) of 135% and a T/C (Mouse P388 leukemia; Table 3-B, 50 mg/kg) of 148%.

Work on `Nc1nc(N)c2c(n1)CCC2CCCc1ccc(C(=O)N[C@@H](CCC(=O)O)C(=O)O)s1` (stereo partly drawn) [Ex. 105, N-{5-[3-(2,4-diamino-6,7-dihydro-5H-cyclopenta[d]pyrimidin-5-yl)propyl]-2-thenoyl}-L-glutamic acid] yielded a pIC50 [1] of 8.40, a pIC50 (Mouse leukemic cell P388; [9]) of 8.74 and a pIC50 [2, 9] of 8.62. For the same molecule, the pIC50 [3, 10] was 9.04, the pIC50 [4, 9] was 9.06 and the pIC50 (LX-1) was 9.17. The T/C (Mouse P388 leukemia; Table 3-B, 0.05 mg/kg) was 126%, the T/C (Mouse P388 leukemia; Table 3-B, 0.20 mg/kg) was 151% and the T/C (Mouse P388 leukemia; Table 3-B, 0.78 mg/kg) was 176%. It also gave a T/C (Mouse P388 leukemia; Table 3-B, 3.13 mg/kg) of 151%.

Molecule `Nc1nc(N)c2c(n1)CCC2CCCc1ccc(C(=O)N[C@@H](CCC(=O)O)C(=O)O)cc1` (some centres unmarked) [Ex. 108] has a pIC50 (Mouse leukemic cell P388; [9]) of 8.57, a pIC50 [2, 9] of 8.03 and a pIC50 [3, 10] of 8.80. For the same molecule, the pIC50 [4, 9] was 8.39, the T/C (Mouse P388 leukemia; Table 3-B, 0.20 mg/kg) was 133% and the T/C (Mouse P388 leukemia; Table 3-B, 0.78 mg/kg) was 150%. The T/C (Mouse P388 leukemia; Table 3-B, 3.13 mg/kg) was 170%.

Molecule `CN(Cc1cnc2nc(N)nc(N)c2n1)c1ccc(C(=O)N[C@@H](CCC(=O)O)C(=O)O)cc1` [MTX, Methotrexate, reference compound] has a pIC50 (Mouse leukemic cell P388; [9]) of 7.66, a pIC50 (Mouse leukemic cell P388; [7]) of 7.80 and a pIC50 [2, 9] of 7.06. It also gave a pIC50 [2, 7] of 7.10, a pIC50 [3, 10] of 7.96 and a pIC50 ([3]; read-out: 50% cell proliferation-inhibitory concentration (IC50)) of 7.70. The pIC50 [4, 9] was 7.55, the pIC50 [4, 7] was 7.22 and the potent adverse effects [5] was “bone marrow suppression and degradation of the intestinal epithelium”. For the same molecule, the “inhibitory activity against dihydrofolate reductase (DHFR)” value [6] was “high inhibitory activity”.
